Experimental data from patent publication US9458187B2, “Methods for treatment of inflammatory conditions using S-[4-(3-fleuro-3-methylbutyryloxy)but-2-ynyl]6α, 9α-difluoro-17α-(furan-2-yl) carbonyloxy-11β-hydroxy-16α-methyl-3-oxoandrosta-1,4-diene-17β-carbothioate” (Sun Pharma Advanced Research Company Limited, priority 2013, dated 2016).
pIC50, pKi: −log10 of the molar value.

Assays:
[1] = tested on: liver glycogen deposition; experiment: Liver glycogen deposition; assay type: in vivo, Male Sprague Dawley rats; conditions: 3 mg/kg intratracheal, 2 doses 24 hrs apart, adrenalectomized rats
Progesterone receptor = target: T1, Progesterone receptor (Homo sapiens, UniProt P06401); experiment: Steroidal receptor binding screen, progesterone (human)
T1 construct: host or cells: insect Sf9
T1 sequence (P06401 1-933): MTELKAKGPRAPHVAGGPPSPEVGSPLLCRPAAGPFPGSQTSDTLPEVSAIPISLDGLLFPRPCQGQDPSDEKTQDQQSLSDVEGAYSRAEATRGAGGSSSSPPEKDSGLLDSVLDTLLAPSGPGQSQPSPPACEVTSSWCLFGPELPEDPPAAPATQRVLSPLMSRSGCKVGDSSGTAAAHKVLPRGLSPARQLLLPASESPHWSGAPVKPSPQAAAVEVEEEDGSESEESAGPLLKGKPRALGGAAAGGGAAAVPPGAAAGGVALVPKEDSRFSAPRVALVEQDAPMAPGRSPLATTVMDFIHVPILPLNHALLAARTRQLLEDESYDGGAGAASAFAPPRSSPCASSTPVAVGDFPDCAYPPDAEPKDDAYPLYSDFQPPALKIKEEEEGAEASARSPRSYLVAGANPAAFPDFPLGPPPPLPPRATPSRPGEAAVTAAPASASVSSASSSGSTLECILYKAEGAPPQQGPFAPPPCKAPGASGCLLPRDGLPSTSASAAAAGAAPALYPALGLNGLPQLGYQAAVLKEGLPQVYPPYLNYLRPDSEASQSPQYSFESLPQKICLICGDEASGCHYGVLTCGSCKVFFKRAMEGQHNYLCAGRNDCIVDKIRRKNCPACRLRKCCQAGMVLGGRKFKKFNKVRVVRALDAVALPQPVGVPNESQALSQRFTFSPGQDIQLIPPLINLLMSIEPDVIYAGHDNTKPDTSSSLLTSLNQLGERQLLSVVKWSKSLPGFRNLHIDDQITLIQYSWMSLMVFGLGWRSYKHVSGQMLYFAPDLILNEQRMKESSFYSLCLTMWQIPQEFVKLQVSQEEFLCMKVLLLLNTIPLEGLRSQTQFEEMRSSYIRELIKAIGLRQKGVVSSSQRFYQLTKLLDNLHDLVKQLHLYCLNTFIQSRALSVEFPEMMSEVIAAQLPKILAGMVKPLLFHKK
From the text: For determination of binding to other related steroidal receptors by compound of the present invention cloned receptors from cells indicated in the parentheses were used: estrogen Erα/Erβ and progesterone (human recombinant insect Sf9), testosterone (human LnCAP) and aldosterone (Wistar rat kidney).

croton oil ear edema = experiment: Croton oil ear edema; assay type: in vivo, Mice (male, CD-1); conditions: 1 μg, applied to ear 2 hrs before croton oil
Protocol: Mice (male, CD-1) were made into different groups. A method similar to one reported in the literature was used. Test compounds were dissolved in pyridine-water-acetone (4:2:14) solution 10 μl of this solution of compound or vehicle solution was applied to the left ear of the mice. The right ear of each mouse was applied simultaneously with 10 μl of pyridine: water: acetone (4:2:14) solution. After 2 hrs of compound or vehicle application, 10 μl of croton oil solution was applied to the left ear of all animals. After 6 hr of croton oil treatment the animals were sacrificed; ears were excised and weighed separately.

[2] = tested on: Seasonal Allergic Rhinitis; experiment: Efficacy and safety by intranasal administration, Seasonal Allergic Rhinitis Environmental Exposure Chamber study; assay type: in vivo, human; conditions: patients, intranasal 100, 200 or 400 μg BID, 2 weeks, versus placebo
Protocol: The present study was conducted to determine the efficacy and safety of the compound of the present invention via intranasal route in Seasonal Allergic Rhinitis model. This was a single-centered, randomized, double-blind, placebo-controlled parallel group study.
OBJECTIVE: The objective of the study was to assess the efficacy and safety of the compound of the present invention via intranasal route compared to placebo in alleviating the signs and symptoms of Seasonal Allergic Rhinitis in Environmental Exposure Chamber Model (EEC) after 2 weeks of treatment.
METHODS: In this study, male and female patients aged 18-65 years with history of seasonal allergic rhinitis and positive skin prick test to Dactylis glomerate within 12 months prior to screening and with TNSS score of >6 at least once during the 2 hour-screening EEC were included. Total 159 patients were included in the study and total 154 patients were considered for efficacy analysis. […]
Primary efficacy endpoint was change in TNSS (Total Nasal Symptom Score) in a 4-hour environmental challenge with Dactylis glomerate pollen in an EEC from baseline to Day 15/16. The TNSS was calculated as summation of 4 point severity scale (0=None, 1=Mild, 2=Moderate and 3=Severe) for each symptom (Nasal congestion, Rhinorrhea, Nasal itching and Sneezing). […]

[3] = tested on: ovalbumin-induced increase in intranasal pressure; experiment: Ovalbumin-induced increase in intranasal pressure; assay type: in vivo, guinea pigs; conditions: intranasal instillation 24 hr and 2 hr prior to ovalbumin challenge; FIG. 2
Protocol: Animals sensitized with ovalbumin as described above were used for experiments determining intranasal pressure. Intranasal instillation of compound of formula I, fluticasone propionate or placebo was done 24 hr and 2 hr prior to challenge with ovalbumin. The nasopharynx was catheterized with a PE cannula, one end of which was attached to pressure transducer and other to the nebulizer. Ovalbumin (5%) was nebulized into the nasal cavity for 10 min. The changes in intranasal pressure were recorded for following 45 min and differential pressure (dP) was calculated.

## C[C@@H]1CC2C3C[C@H](F)C4=CC(=O)C=C[C@]4(C)[C@@]3(F)[C@@H](O)C[C@]2(C)[C@@]1(OC(=O)c1ccco1)C(=O)SCC#CCOC(=O)CC(C)(C)F (stereo partly drawn) [Formula I, S-[4-(3-Fluoro-3-methylbutyryloxy)but-2-ynyl]6α,9α-difluoro-17α-(furan-2-yl)carbonyloxy-11β-hydroxy-16α-methyl-3-oxoandrosta-1,4-diene-17β-carbothioate]
[1]
  % Inhibition of thymus: 26.15%
Progesterone receptor
  pIC50: 8.07
  pKi: 8.48
Croton oil ear edema
  Inhibition of ear edema (%): 75.5%
[2]
  primary and secondary efficacy endpoints (change in TNSS, TNSS subscales, nasal secretion): statistically superior to the placebo
  safety profile (treatment-emergent adverse events): no significant difference in the safety profile
[3]
  inhibition of intranasal pressure: equivalent inhibition
